Laboratory results: publication PMC3979805, “Identification of Resveratrol Oligomers as Inhibitors of Cystic Fibrosis Transmembrane Conductance Regulator by High-Throughput Screening of Natural Products from Chinese Medicinal Plants” (PLoS ONE, 2014)

Experiments:
[1] = target: T1, cystic fibrosis transmembrane conductance regulator (CFTR) (Homo sapiens, UniProt P13569); experiment: EYFP-H148Q iodide influx assay in FRT cells; excised inside-out patch-clamp ([…], nearly irreversible); type: cell-based
T1 construct: wild-type human CFTR stably expressed in FRT cells
T1 sequence (P13569 whole entry): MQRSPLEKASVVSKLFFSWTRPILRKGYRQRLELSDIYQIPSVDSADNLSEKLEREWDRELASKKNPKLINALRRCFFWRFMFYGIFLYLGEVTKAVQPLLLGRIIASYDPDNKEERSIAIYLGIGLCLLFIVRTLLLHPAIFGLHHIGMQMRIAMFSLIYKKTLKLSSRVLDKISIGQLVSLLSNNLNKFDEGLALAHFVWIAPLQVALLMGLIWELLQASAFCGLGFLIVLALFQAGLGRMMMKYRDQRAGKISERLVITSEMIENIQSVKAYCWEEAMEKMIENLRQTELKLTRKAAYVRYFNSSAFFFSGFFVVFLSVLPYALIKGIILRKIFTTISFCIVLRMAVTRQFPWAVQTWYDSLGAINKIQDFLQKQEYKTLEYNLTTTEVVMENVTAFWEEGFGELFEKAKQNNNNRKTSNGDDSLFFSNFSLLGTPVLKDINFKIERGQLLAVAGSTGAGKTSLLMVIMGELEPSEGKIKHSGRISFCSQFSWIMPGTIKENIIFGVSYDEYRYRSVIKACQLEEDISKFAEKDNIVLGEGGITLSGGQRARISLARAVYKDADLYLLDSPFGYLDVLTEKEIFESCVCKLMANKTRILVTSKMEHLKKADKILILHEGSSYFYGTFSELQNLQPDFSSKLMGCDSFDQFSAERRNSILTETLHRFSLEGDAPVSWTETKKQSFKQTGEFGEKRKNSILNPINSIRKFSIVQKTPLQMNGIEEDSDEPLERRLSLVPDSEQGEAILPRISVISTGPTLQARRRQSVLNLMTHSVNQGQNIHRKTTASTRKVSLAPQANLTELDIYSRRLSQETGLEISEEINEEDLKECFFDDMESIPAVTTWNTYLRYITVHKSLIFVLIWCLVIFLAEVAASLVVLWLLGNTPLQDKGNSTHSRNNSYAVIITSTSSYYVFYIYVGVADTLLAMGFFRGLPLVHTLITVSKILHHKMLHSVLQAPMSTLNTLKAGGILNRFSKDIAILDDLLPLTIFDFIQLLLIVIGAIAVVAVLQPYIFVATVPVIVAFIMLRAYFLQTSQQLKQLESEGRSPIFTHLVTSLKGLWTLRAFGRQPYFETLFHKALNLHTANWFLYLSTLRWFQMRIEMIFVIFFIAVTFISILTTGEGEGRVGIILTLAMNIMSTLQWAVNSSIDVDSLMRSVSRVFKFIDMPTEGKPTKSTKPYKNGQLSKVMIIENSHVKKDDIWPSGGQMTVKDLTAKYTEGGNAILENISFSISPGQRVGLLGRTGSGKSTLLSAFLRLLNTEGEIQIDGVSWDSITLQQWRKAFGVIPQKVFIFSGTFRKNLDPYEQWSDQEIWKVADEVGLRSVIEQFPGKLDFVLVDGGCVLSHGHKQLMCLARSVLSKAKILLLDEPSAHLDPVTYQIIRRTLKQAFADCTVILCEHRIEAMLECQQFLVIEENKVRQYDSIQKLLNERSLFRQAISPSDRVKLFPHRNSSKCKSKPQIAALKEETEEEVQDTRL

[2] = target: T1, cystic fibrosis transmembrane conductance regulator (CFTR); experiment: EYFP-H148Q iodide influx assay in FRT cells; excised inside-out patch-clamp ([…], reversible); type: cell-based

Compound	IC50 [1] [µM]	IC50 [2] [µM]
Oc1ccc([C@H]2c3c(O)cc(O)cc3[C@H]3c4c(cc(O)cc4[C@H]2c2cc(/C=C/c4cc(O)cc5c4[C@H](c4cc(O)cc(O)c4)[C@@H](c4ccc(O)cc4)O5)ccc2O)O[C@@H]3c2ccc(O)cc2)cc1 [RV, r-2-viniferin]	~20	
Oc1ccc(/C=C/c2cc(O)cc3c2[C@H](c2cc(O)cc(O)c2)[C@@H](c2ccc(O)cc2)O3)cc1 [TV, trans-ε-viniferin]		~20
